Results from patent EP3352763B1 (priority 2015, dated 2017).

Test system: A/Mississippi/3/2001/Variante, H1N1
Type: cell-based, Influenzaviren

Question: For `O=C(/C=C/c1ccc(O)cc1)OC[C@H]1O[C@@H](Oc2c(-c3ccc(O)cc3)oc3cc(O)cc(O)c3c2=O)[C@H](O)[C@@H](O)[C@@H]1O` [Tilirosid, Kaempferol-3-(6"-trans-p-coumaroyl)glucosid], which “Selektivitätsindex (S.I.)” value is on record?
Answer: 1.047

Question: What about the “antivirale Wirkung” value of the same molecule?
Answer: antiviral wirkt
